Test results as given in PMC8913295, “Cryo-EM structure of hexameric yeast Lon protease (PIM1) highlights the importance of conserved structural elements” (The Journal of Biological Chemistry, 2022).

T1: PIM1 (yeast Lon protease) (Saccharomyces cerevisiae, UniProt P36775)
T1 construct: 109 kDa; hexamer; residues 529-1133 resolved
T1 sequence (P36775 182-1133): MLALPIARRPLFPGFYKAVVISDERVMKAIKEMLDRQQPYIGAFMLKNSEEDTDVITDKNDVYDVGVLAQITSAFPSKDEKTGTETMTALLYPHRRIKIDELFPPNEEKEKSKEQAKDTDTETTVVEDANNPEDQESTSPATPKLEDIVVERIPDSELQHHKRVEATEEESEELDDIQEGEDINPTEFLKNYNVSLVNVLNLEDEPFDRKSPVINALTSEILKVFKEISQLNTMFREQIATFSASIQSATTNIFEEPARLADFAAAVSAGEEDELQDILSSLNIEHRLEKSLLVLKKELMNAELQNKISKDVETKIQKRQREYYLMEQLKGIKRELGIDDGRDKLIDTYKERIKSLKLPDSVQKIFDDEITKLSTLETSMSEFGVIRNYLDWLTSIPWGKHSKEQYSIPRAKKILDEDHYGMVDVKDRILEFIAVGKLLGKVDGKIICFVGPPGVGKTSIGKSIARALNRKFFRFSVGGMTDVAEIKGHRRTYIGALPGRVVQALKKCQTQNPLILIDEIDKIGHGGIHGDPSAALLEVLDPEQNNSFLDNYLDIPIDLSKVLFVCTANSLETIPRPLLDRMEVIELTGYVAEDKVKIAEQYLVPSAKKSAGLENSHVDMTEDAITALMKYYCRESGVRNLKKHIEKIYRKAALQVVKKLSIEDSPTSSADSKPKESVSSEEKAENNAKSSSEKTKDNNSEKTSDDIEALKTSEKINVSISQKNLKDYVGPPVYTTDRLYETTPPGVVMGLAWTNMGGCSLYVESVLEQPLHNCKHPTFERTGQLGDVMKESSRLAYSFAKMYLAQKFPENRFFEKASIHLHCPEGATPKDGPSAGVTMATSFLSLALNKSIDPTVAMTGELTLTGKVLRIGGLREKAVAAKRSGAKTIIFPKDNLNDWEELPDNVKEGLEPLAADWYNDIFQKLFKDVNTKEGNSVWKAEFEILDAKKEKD

B1: mature WT S. cerevisiae PIM1 lacking the mitochondrial targeting sequence (yeast Lon protease) (enzyme, UniProt P36775 182-1133, looked up)
chain: T1 sequence (P36775 182-1133)
notes: residues 529-1133 modelled in the structure; also called WT PIM1; source: E. coli BL21 (DE3) Codon Plus RIPL, purified (Ni-NTA, Superose 6 SEC)

Legend:
[1] = biological target: T1, PIM1 (yeast Lon protease); assay: cryo-EM structure ([…] Å); type: binding; details: two seam subunits (ADP1-2) without gamma-phosphate density; no ADP added, 1 mM ATPγS in sample
[2] = biological target: the molecule itself; assay: cryo-EM structure; WT PIM1 (3 mg/ml) after size-exclusion chromatography, incubated with 1 mM ATPγS on ice for 20 min, plunge-frozen; reconstruction at ~3.2 Å

Molecule	cryo-EM structure (3.2 Å) [1]	stoichiometry N [2]
Nc1ncnc2c1ncn2[C@@H]1O[C@H](COP(=O)(O)OP(=O)(O)O)[C@@H](O)[C@H]1O [ADP]	do not contain density for a γ-phosphate and are named ADP1 and ADP2	
B1		6
